Drawing on patent US20260365628A1, “SUBSTITUTED 3,4-DIHYDROQUINOLINONE INHIBITORS OF TSHR” (Septerna, Inc., priority 2022, published 2026), this text covers IC50 for 34 compounds.

Bounds are passed on as bounds.

The target in this experiment is T1, hTSHR (Homo sapiens, UniProt P16473).
T1 construct: expressed in transfected cells
T1 sequence (P16473 21-764): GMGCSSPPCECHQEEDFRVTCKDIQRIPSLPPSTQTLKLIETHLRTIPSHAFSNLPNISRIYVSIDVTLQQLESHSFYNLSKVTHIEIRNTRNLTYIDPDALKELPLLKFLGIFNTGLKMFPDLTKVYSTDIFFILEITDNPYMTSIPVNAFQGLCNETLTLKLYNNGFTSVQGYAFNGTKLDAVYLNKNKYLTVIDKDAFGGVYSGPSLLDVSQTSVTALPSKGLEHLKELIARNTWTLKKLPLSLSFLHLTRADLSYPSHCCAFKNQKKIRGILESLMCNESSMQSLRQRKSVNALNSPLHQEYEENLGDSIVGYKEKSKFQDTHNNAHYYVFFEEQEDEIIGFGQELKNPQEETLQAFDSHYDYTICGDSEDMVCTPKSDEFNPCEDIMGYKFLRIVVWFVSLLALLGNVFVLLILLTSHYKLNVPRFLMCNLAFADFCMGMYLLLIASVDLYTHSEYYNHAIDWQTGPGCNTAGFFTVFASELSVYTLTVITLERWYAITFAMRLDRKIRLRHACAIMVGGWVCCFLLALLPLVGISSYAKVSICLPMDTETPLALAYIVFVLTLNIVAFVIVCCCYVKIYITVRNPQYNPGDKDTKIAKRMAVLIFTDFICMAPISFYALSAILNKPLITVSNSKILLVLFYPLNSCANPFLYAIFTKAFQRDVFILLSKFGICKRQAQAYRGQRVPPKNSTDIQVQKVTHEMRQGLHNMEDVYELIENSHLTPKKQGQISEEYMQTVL
Kind of experiment: hTSHR TR-FRET cAMP Assay (inhibition of M22-stimulated cAMP production). Format: cell-based. The following applies: Expi293F Inducible cells stably expressing hTSHR; cAMP HTRF; stimulated with EC80 of anti-TSHR antibody M22; 15 min compound preincubation, 30 min at 37° C.; read-out: Activity (IC50 bins). The method, boiled down:
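Readout was a cAMP HTRF ratio of 655/620 nm after lysis, scaled between the EC80 M22 signal (0% inhibition) and no-agonist vehicle (100%). Frozen induced Expi293F-hTSHR cells saw test compounds (0.5% DMSO) for 15 min at 37 °C before 30 min of M22 stimulation at EC80.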
In general terms: TR-FRET usually uses a lanthanide donor and a delayed reading to cut background.
As for `C[C@H]1Oc2cc(NC(=O)NC3(C)COC3)ccc2N([C@@H](C)c2ccccc2)C1=O` [Example 262, 1-((R)-2-methyl-3-oxo-4-((S)-1-phenylethyl)-3,4-dihydro-2H-benzo [b][1,4]oxazin-7-yl)-3-(3-methyl-oxetan-3-yl)urea], the IC50 was over 1 µM.

Consider `C[C@H]1Oc2cc(NC(=O)NC3(C(F)(F)F)COC3)ccc2N([C@@H](C)c2ccccc2)C1=O` [Example 263, 1-((R)-2-methyl-3-oxo-4-((S)-1-phen-ylethyl)-3,4-dihydro-2H-benzo[b][1,4]oxazin-7-yl)-3-(3-(trifluoromethyl)-oxetan-3-yl)urea], for which the half-maximal inhibitory concentration (IC50) was in the range of 0.1 to 1 µM.

In the case of `C[C@H]1Oc2cc(NC(=O)NC3(C(F)(F)F)CC(F)(F)C3)ccc2N([C@@H](C)c2ccccc2)C1=O` [Example 264, 1-(3,3-difluoro-1-(trifluoromethyl)-cyclobutyl)-3-((R)-2-methyl-3-oxo-4-((S)-1-phenylethyl)-3,4-dihydro-2H-benzo[b][1,4]oxazin-7-yl)urea], the 50% inhibitory concentration (IC50) was in the range of 0.1 to 1 µM.

`C[C@H]1Oc2cc(NC(=O)NC3(C)CCOCC3)ccc2N([C@@H](C)c2ccccc2)C1=O` [Example 265, 1-((R)-2-methyl-3-oxo-4-((S)-1-phen-ylethyl)-3,4-dihydro-2H-benzo[b][1,4]oxazin-7-yl)-3-(4-methyltetrahydro-2H-pyran-4-yl)urea]: the 50% inhibitory concentration (IC50) lay in the range of 0.1 to 1 µM.

Consider `Cc1ccc(C#N)c(CN2C(=O)CCc3cc(NC(=O)NC(C)(C)C)ccc32)c1` [Example 266, 3-tert-butyl-1-{1-[(2-cyano-5-methylphenyl)methyl]-2-oxo-3,4-dihydroquinolin-6-yl}urea], for which the 50% inhibitory concentration (IC50) is over 1 µM.

Regarding `CC(C)(C)NC(=O)Nc1ccc2c(c1Cl)CCC(=O)N2Cc1ccccc1` [Example 267, 1-(1-benzyl-5-chloro-2-oxo-1,2,3,4-tetrahydroquinolin-6-yl)-3-(tert-butyl)urea], the IC50 fell in the range of 0.1 to 1 µM.

With `C[C@@H]1Oc2cc(NC(=O)NC(C)(C)C)ccc2N([C@@H](C)c2ccccc2)C1=O` [Example 268, 1-(tert-butyl)-3-((S)-2-methyl-3-oxo-4-((S)-1-phenylethyl)-3,4-dihydro-2H-benzo[b][1,4]oxazin-7-yl)urea], the 50% inhibitory concentration (IC50) is 0.1 to 1 µM.

For `C[C@H]1Oc2cc(NC(=O)NC(C)(C)C)ccc2N([C@@H](C)c2ccccc2)C1=O` [Example 269, 1-(tert-butyl)-3-((R)-2-methyl-3-oxo-4-((S)-1-phenylethyl)-3,4-dihydro-2H-benzo[b][1,4]oxazin-7-yl)urea], the IC50 was under 0.1 µM.

As for `CC(C)(C)NC(=O)Nc1cc2c(cc1C#N)N(Cc1ccccc1)C(=O)CC2` [Example 270, 1-(1-benzyl-7-cyano-2-oxo-3,4-dihydroquinolin-6-yl)-3-tert-butylurea], the half-maximal inhibitory concentration (IC50) is over 1 µM.

`CC(c1cccc(C(F)(F)F)c1)N1C(=O)N(C)Cc2cc(NC(=O)NC(C)(C)C)ccc21` (stereo not shown) [Example 271, 1-(tert-butyl)-3-(3-methyl-2-oxo-1-(1-(3-(trifluoromethyl)phenyl)ethyl)-1,2,3,4-tetrahydroquinazolin-6-yl)urea]: the IC50 is over 1 µM.

In the case of `Cc1nc2cc(NC(=O)NC(C)(C)C)ccc2n(Cc2ccccc2)c1=O` [Example 272, 1-(1-benzyl-3-methyl-2-oxo-1,2-dihydroquinoxalin-6-yl)-3-(tert-butyl)urea], the half-maximal inhibitory concentration (IC50) was over 1 µM.

As to `Cc1nc2cc(NC(=O)NC(C)(C)C)ccc2n(Cc2cccc(Cl)c2)c1=O` [Example 273, 3-tert-butyl-1-{1-[(3-chlorophenyl)methyl]-3-methyl-2-oxoquinoxalin-6-yl}urea], the IC50 lay within 0.1 to 1 µM.

`CC(C)(C)NC(=O)Nc1ccc2c(n1)CCC(=O)N2Cc1cccc(C(F)(F)F)c1` [Example 274, 1-(tert-butyl)-3-(6-oxo-5-(3-(trifluoromethyl)benzyl)-5,6,7,8-tetrahydro-1,5-naphthyridin-2-yl)urea]: the concentration for half-maximal inhibition (IC50) lay within 0.1 to 1 µM.

Regarding `CC(C)(C)NC(=O)Nc1ccc2c(c1)C[C@H](CC#N)C(=O)N2Cc1ccccc1` [Example 275, (R)-1-(1-benzyl-3-(cyanomethyl)-2-oxo-1,2,3,4-tetrahydroquinolin-6-yl)-3-(tert-butyl)urea], the IC50 is over 1 µM.

As to `CC(C)(C)NC(=O)Nc1ccc2c(c1)C[C@@H](CC#N)C(=O)N2Cc1ccccc1` [Example 276, (S)-1-(1-benzyl-3-(cyanomethyl)-2-oxo-1,2,3,4-tetrahydroquinolin-6-yl)-3-(tert-butyl)urea], the IC50 is over 1 µM.

As to `CC[C@H]1Oc2cc(NC(=O)NC(C)(C)C)ccc2N(Cc2ccccc2)C1=O` [Example 277, (R)-1-(4-benzyl-2-ethyl-3-oxo-3,4-dihydro-2H-benzo[b][1,4]oxazin-7-yl)-3-(tert-butyl)urea], the IC50 is over 1 µM.

For the compound `CC[C@@H]1Oc2cc(NC(=O)NC(C)(C)C)ccc2N(Cc2ccccc2)C1=O` [Example 278, (S)-1-(4-benzyl-2-ethyl-3-oxo-3,4-dihydro-2H-benzo[b][1,4]oxazin-7-yl)-3-(tert-butyl)urea], the IC50 is over 1 µM.

For the compound `CC(C)(C)NC(=O)Nc1ccc2c(c1C#N)CCC(=O)N2Cc1ccccc1` [Example 279, 1-(1-benzyl-5-cyano-2-oxo-1,2,3,4-tetrahydroquinolin-6-yl)-3-(tert-butyl)urea], the IC50 is over 1 µM.

Consider `C[C@H]1Oc2nc(NC(=O)NC(C)(C)C)ccc2N(Cc2ccccc2)C1=O` [Example 280, (R)-1-(1-benzyl-3-methyl-2-oxo-2,3-dihydro-1H-pyrido[2,3-b][1,4]oxazin-6-yl)-3-(tert-butyl)urea], for which the IC50 is 0.1 to 1 µM.

As for `CC(C)(C)NC(=O)Nc1ccc2c(n1)CCC(=O)N2Cc1cccc(Cl)c1` [Example 281, 1-(tert-butyl)-3-(5-(3-chlorobenzyl)-6-oxo-5,6,7,8-tetrahydro-1,5-naphthyridin-2-yl)urea], the IC50 is 0.1 to 1 µM.

Turning to `C[C@@H](c1cccc(C(F)(F)F)c1)N1C(=O)CCc2nc(NC(=O)NC(C)(C)C)ccc21` [Example 282, (S)-1-(tert-butyl)-3-(6-oxo-5-(1-(3-(trifluoromethyl)phenyl)ethyl)-5,6,7,8-tetrahydro-1,5-naphthyridin-2-yl)urea], the half-inhibitory concentration (IC50) lay in the range of 0.1 to 1 µM.

On to `C[C@H](c1cccc(C(F)(F)F)c1)N1C(=O)CCc2nc(NC(=O)NC(C)(C)C)ccc21` [Example 283, (R)-1-(tert-butyl)-3-(6-oxo-5-(1-(3-(trifluoromethyl)phenyl)ethyl)-5,6,7,8-tetrahydro-1,5-naphthyridin-2-yl)urea], for which the concentration for half-maximal inhibition (IC50) was over 1 µM.

With `O=C(Nc1ccccc1)Nc1ccc2c(c1)CCC(=O)N2Cc1ccccc1` [Example 284, 3-(1-benzyl-2-oxo-3,4-dihydroquinolin-6-yl)-1-phenylurea], the half-maximal inhibitory concentration (IC50) was over 1 µM.

As to `CC(C)(C)CC(=O)Nc1ccc2c(c1)CCC(=O)N2Cc1ccccc1` [Example 285, N-(1-benzyl-2-oxo-3,4-dihydroquinolin-6-yl)-3,3-dimethylbutanamide], the IC50 was over 1 µM.

With `C[C@@H]1Oc2nc(NC(=O)NC(C)(C)C)ccc2N(Cc2cccc(Cl)c2)C1=O` [Example 286, (S)-1-(tert-butyl)-3-(1-(3-chlorobenzyl)-3-methyl-2-oxo-2,3-dihydro-1H-pyrido[2,3-b][1,4]oxazin-6-yl)urea], the IC50 is over 1 µM.

For `C[C@H]1Oc2nc(NC(=O)NC(C)(C)C)ccc2N(Cc2cccc(Cl)c2)C1=O` [Example 287, (R)-1-(tert-butyl)-3-(1-(3-chlorobenzyl)-3-methyl-2-oxo-2,3-dihydro-1H-pyrido[2,3-b][1,4]oxazin-6-yl)urea], the half-maximal inhibitory concentration (IC50) lay in the range of 0.1 to 1 µM.

On to `COC[C@@H]1Oc2cc(NC(=O)NC(C)(C)C)ccc2N(Cc2ccccc2)C1=O` [Example 288, (S)-1-(4-benzyl-2-(methoxymethyl)-3-oxo-3,4-dihydro-2H-benzo[b][1,4]oxazin-7-yl)-3-(tert-butyl)urea], for which the IC50 is over 1 µM.

With `COC[C@H]1Oc2cc(NC(=O)NC(C)(C)C)ccc2N(Cc2ccccc2)C1=O` [Example 289, (R)-1-(4-benzyl-2-(methoxymethyl)-3-oxo-3,4-dihydro-2H-benzo[b][1,4]oxazin-7-yl)-3-(tert-butyl)urea], the IC50 was over 1 µM.

`C[C@@H](c1cccc(Cl)c1)N1C(=O)CCc2nc(NC(=O)NC(C)(C)C)ccc21` [Example 290, (S)-1-(tert-butyl)-3-(5-(1-(3-chlorophenyl)ethyl)-6-oxo-5,6,7,8-tetrahydro-1,5-naphthyridin-2-yl)urea]: the IC50 was over 1 µM.

With `C[C@H](c1cccc(Cl)c1)N1C(=O)CCc2nc(NC(=O)NC(C)(C)C)ccc21` [Example 291, (R)-1-(tert-butyl)-3-(5-(1-(3-chlorophenyl)ethyl)-6-oxo-5,6,7,8-tetrahydro-1,5-naphthyridin-2-yl)urea], the IC50 lay within 0.1 to 1 µM.

Regarding `CC(C)(C)NC(=O)Nc1ccc2c(c1)OC(C)(C)C(=O)N2Cc1ccccc1` [Example 292, 1-(4-benzyl-2,2-dimethyl-3-oxo-3,4-dihydro-2H-benzo[b][1,4]oxazin-7-yl)-3-(tert-butyl)urea], the IC50 is over 1 µM.

As for `CC(c1cc(Cl)ccc1C#N)N1C(=O)COc2cc(NC(=O)NC(C)(C)C)ccc21` (stereo not shown) [Example 293, 1-(tert-butyl)-3-(4-(1-(5-chloro-2-cyanophenyl)ethyl)-3-oxo-3,4-dihydro-2H-benzo[b][1,4]oxazin-7-yl)urea], the IC50 was over 1 µM.

As for `CC(C)(C)NC(=O)Nc1ccc2c(c1)nc(N)c(=O)n2Cc1ccccc1` [Example 294, 1-(3-amino-1-benzyl-2-oxo-1,2-dihydroquinoxalin-6-yl)-3-(tert-butyl)urea], the IC50 was over 1 µM.

Regarding `CCc1nc2cc(NC(=O)NC(C)(C)C)ccc2n(Cc2cccc(OC(F)(F)F)c2)c1=O` [Example 295, 1-(tert-butyl)-3-(3-ethyl-2-oxo-1-(3-(trifluoromethoxy)benzyl)-1,2-dihydroquinoxalin-6-yl)urea], the half-inhibitory concentration (IC50) was over 1 µM.

The term IC50 denotes the point on the concentration scale where inhibition reaches its midpoint.
